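1) Cells in 96-well plates. 2) Compound, 48 h, 5 concentrations. 3) Linear interpolation between surrounding doses. 4) Unreached endpoint = highest concentration. GI50: concentration for 50% inhibition of growth.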 The source made the active and inactive calls. Cut-off read from the data, not from the text of the source: active = GI50 up to about 1.1 µM and inactive = higher.
Tests used:
Test in all cases: NCI-60 cell line screen, 48 h
DMS-273 = tested on: DMS-273
CCRF-CEM = tested on: CCRF-CEM
HL-60 = tested on: HL-60
IGROV-1 = tested on: IGROV-1
OVCAR-3 = tested on: OVCAR-3
SF-539 = tested on: SF-539
DMS-114 = tested on: DMS-114
DLD-1 = tested on: DLD-1
NCI-H460 = tested on: NCI-H460
MOLT-4 = tested on: MOLT-4
OVCAR-8 = tested on: OVCAR-8
SNB-75 = tested on: SNB-75
HCC 2998 = tested on: HCC 2998
SR = tested on: SR
UO-31 = tested on: UO-31
UACC-257 = tested on: UACC-257
CAKI-1 = tested on: CAKI-1
K562 = tested on: K562
UACC-62 = tested on: UACC-62
HCT-116 = tested on: HCT-116
M19-MEL = tested on: M19-MEL
KM12 = tested on: KM12
HT-29 = tested on: HT-29
SK-MEL-28 = tested on: SK-MEL-28
SK-MEL-2 = tested on: SK-MEL-2
HCT-15 = tested on: HCT-15
KM-20L2 = tested on: KM-20L2
RXF 393 = tested on: RXF 393
NCI-H226 = tested on: NCI-H226
A498 = tested on: A498
NCI-H522 = tested on: NCI-H522
SNB-19 = tested on: SNB-19
RPMI-8226 = tested on: RPMI-8226
OVCAR-4 = tested on: OVCAR-4
LOX IMVI = tested on: LOX IMVI
786-0 = tested on: 786-0
SF-295 = tested on: SF-295
SK-OV-3 = tested on: SK-OV-3
LXFL 529 = tested on: LXFL 529
OVCAR-5 = tested on: OVCAR-5
ACHN = tested on: ACHN
XF498 = tested on: XF498
U-251 = tested on: U-251
Malme-3M = tested on: Malme-3M
NCI-H23 = tested on: NCI-H23
HOP-92 = tested on: HOP-92
HOP-62 = tested on: HOP-62
COLO 205 = tested on: COLO 205
SN12C = tested on: SN12C
SW-620 = tested on: SW-620
M14 = tested on: M14
SK-MEL-5 = tested on: SK-MEL-5
TK-10 = tested on: TK-10
SNB-78 = tested on: SNB-78
EKVX = tested on: EKVX
A549 = tested on: A549
HOP-18 = tested on: HOP-18

`O=C(/C(=C/c1ccccc1)c1ccccc1)N1c2ccccc2CC1c1c[nH]c2ccccc12` (stereo not given) was tested, and the GI50 (DMS-273) was 7.83 µM (inactive), the GI50 (CCRF-CEM) was 8.91 µM (inactive) and the GI50 (HL-60) was 3.19 µM (inactive). For the same molecule, the GI50 (IGROV-1) was > 100 µM (inactive), the GI50 (OVCAR-3) was 3.05 µM (inactive) and the GI50 (SF-539) was > 100 µM (inactive). The GI50 (DMS-114) was 5.7 µM (inactive), the GI50 (DLD-1) was 53.2 µM (inactive) and the GI50 (NCI-H460) was 7.48 µM (inactive). For the same molecule, the GI50 (MOLT-4) was 3.33 µM (inactive), the GI50 (OVCAR-8) was > 100 µM (inactive) and the GI50 (SNB-75) was > 100 µM (inactive). The GI50 (HCC 2998) was > 100 µM (inactive), the GI50 (SR) was > 100 µM (inactive) and the GI50 (UO-31) was 5.11 µM (inactive). For the same molecule, the GI50 (UACC-257) was 54.5 µM (inactive), the GI50 (CAKI-1) was 36.1 µM (inactive) and the GI50 (K562) was 5.05 µM (inactive). The GI50 (UACC-62) was > 100 µM (inactive), the GI50 (HCT-116) was 5.51 µM (inactive) and the GI50 (M19-MEL) was 38.6 µM (inactive). For the same molecule, the GI50 (KM12) was 10.2 µM (inactive), the GI50 (HT-29) was 76.4 µM (inactive) and the GI50 (SK-MEL-28) was > 100 µM (inactive). For the same molecule, the GI50 (SK-MEL-2) was 6.03 µM (inactive), the GI50 (HCT-15) was 7.76 µM and the GI50 (KM-20L2) was 26.8 µM (inactive). The GI50 (RXF 393) was 6.07 µM (inactive), the GI50 (NCI-H226) was 41.1 µM (inactive) and the GI50 (A498) was > 100 µM (inactive). The GI50 (NCI-H522) was 7.8 µM (inactive), the GI50 (SNB-19) was 23.7 µM (inactive) and the GI50 (RPMI-8226) was 15.6 µM (inactive). For the same molecule, the GI50 (OVCAR-4) was 37.8 µM (inactive), the GI50 (LOX IMVI) was 21.6 µM (inactive) and the GI50 (786-0) was > 100 µM (inactive). For the same molecule, the GI50 (SF-295) was 7.62 µM (inactive), the GI50 (SK-OV-3) was > 100 µM (inactive) and the GI50 (LXFL 529) was 8.3 µM (inactive). For the same molecule, the GI50 (OVCAR-5) was 38.6 µM (inactive), the GI50 (ACHN) was 16.9 µM (inactive) and the GI50 (XF498) was 3.05 µM (inactive). For the same molecule, the GI50 (U-251) was 9.53 µM (inactive), the GI50 (Malme-3M) was 28.5 µM (inactive) and the GI50 (NCI-H23) was 15 µM (inactive). For the same molecule, the GI50 (HOP-92) was 81.1 µM (inactive), the GI50 (HOP-62) was > 100 µM (inactive) and the GI50 (COLO 205) was 6.27 µM (inactive). The GI50 (SN12C) was 22.2 µM (inactive), the GI50 (SW-620) was 59.2 µM (inactive) and the GI50 (M14) was 9.18 µM (inactive). The GI50 (SK-MEL-5) was 21.7 µM (inactive), the GI50 (TK-10) was 45.7 µM (inactive) and the GI50 (SNB-78) was 9.2 µM (inactive). The GI50 (EKVX) was 25.2 µM (inactive) and the GI50 (A549) was 11 µM (inactive).

In the case of `CC1=C[P+](Cc2ccccc2)(c2ccccc2)CC1` (stereo not given), the GI50 (DMS-273) is reported as 78 µM (inactive), the GI50 (CCRF-CEM) is reported as > 100 µM (inactive) and the GI50 (HL-60) is reported as 34 µM (inactive). For the same molecule, the GI50 (IGROV-1) was 81.1 µM (inactive), the GI50 (OVCAR-3) was 44.3 µM (inactive) and the GI50 (SF-539) was > 100 µM (inactive). The GI50 (DMS-114) was 46.9 µM (inactive), the GI50 (HOP-18) was > 100 µM (inactive) and the GI50 (UO-31) was > 100 µM (inactive). For the same molecule, the GI50 (UACC-257) was 41.9 µM (inactive), the GI50 (UACC-62) was 63.7 µM (inactive) and the GI50 (HCT-116) was > 100 µM (inactive). For the same molecule, the GI50 (M19-MEL) was 46.8 µM (inactive), the GI50 (KM12) was > 100 µM (inactive) and the GI50 (HT-29) was 66.4 µM (inactive). For the same molecule, the GI50 (SK-MEL-2) was > 100 µM (inactive), the GI50 (KM-20L2) was 75.2 µM (inactive) and the GI50 (NCI-H226) was > 100 µM (inactive). For the same molecule, the GI50 (A498) was > 100 µM (inactive), the GI50 (NCI-H522) was 41.7 µM (inactive) and the GI50 (SNB-19) was > 100 µM (inactive). The GI50 (RPMI-8226) was 25.7 µM (inactive), the GI50 (LOX IMVI) was 90.4 µM (inactive) and the GI50 (LXFL 529) was 45.4 µM (inactive). For the same molecule, the GI50 (HOP-62) was > 100 µM (inactive), the GI50 (COLO 205) was 31.6 µM (inactive) and the GI50 (SW-620) was > 100 µM (inactive). The GI50 (SK-MEL-5) was 21.5 µM (inactive) and the GI50 (EKVX) was 54.6 µM (inactive).

— ChEMBL document CHEMBL1201862, “PubChem BioAssay data set” (2004)
